In patent US20230381157A1, “RIFABUTIN FOR THE TREATMENT OF ACINETOBACTER BAUMANNII” (University of Southern California, priority 2018, published 2023):
Read-outs that look alike come from different tables or passages of the source.

Legend:
A. baumannii ATCC 17978 = experiment: IC50 dose response, inhibition of bacterial growth (BacTiter-Glo viability); type: cell-based, Acinetobacter baumannii; conditions: Acinetobacter baumannii, 11-point dose response, read-out: IC50
A. baumannii HUMC1 = experiment: as above; type: cell-based, Acinetobacter baumannii; conditions: Acinetobacter baumannii, 11-point dose response, read-out: IC50
HEK293T = experiment: Specificity: mammalian cell cytotoxicity / inhibition of bacteria growth (CC50/IC50)
[1] = ATCC17978, ATCC 17978, RPMI + 50% Serum
[2] = HUMC1, 24 h, HUMC1, RPMI + 50% Serum
[3] = IC50 vs A. baumannii ATCC 17978, RPMI + 50% serum
[4] = IC50 vs A. baumannii ATCC 17978, RPMI alone
[5] = IC50 vs A. baumannii HUMC1, RPMI + 50% serum
[6] = IC50 vs A. baumannii HUMC1, RPMI alone
[7] = ATCC17978, 24 h, ATCC 17978, RPMI + 50% Serum

IC50 (A. baumannii ATCC 17978; [1])	IC50 (A. baumannii ATCC 17978; ATCC17978, ATCC 17978, RPMI)	IC50 (A. baumannii HUMC1; [2])	IC50 (A. baumannii HUMC1; HUMC1, HUMC1, RPMI + 50% Serum)	IC50 (A. baumannii HUMC1; HUMC1, HUMC1, RPMI)	IC50 (A. baumannii ATCC 17978; [7])	Structure (SMILES)	Specificity HEK293T (CC50/IC50) (HEK293T; [3])	Specificity HEK293T (CC50/IC50) (HEK293T; [4])	Specificity HEK293T (CC50/IC50) (HEK293T; [5])	Specificity HEK293T (CC50/IC50) (HEK293T; [6])
2.45 µM	1.78 µM	1.59 µM	1.59 µM	1.53 µM	2.45 µM	CO[C@H]1/C=C/O[C@@]2(C)Oc3c(C)c(O)c4c(O)c(c5c(nc6cc(C)ccn65)c4c3C2=O)NC(=O)/C(C)=C\C=C\[C@H](C)[C@H](O)[C@@H](C)[C@@H](O)[C@@H](C)[C@H](OC(C)=O)[C@@H]1C [rifaximin]	20.421	28.143	31.517	32.776
28.1 µM	7.59 µM	10.9 µM	10.9 µM	10 µM	28.1 µM	CO[C@H]1/C=C/O[C@@]2(C)Oc3c(C)c(O)c4c(O)c(c(/C=N/N5CCN(C6CCCC6)CC5)c(O)c4c3C2=O)NC(=O)/C(C)=C\C=C\[C@H](C)[C@H](O)[C@@H](C)[C@@H](O)[C@@H](C)[C@H](OC(C)=O)[C@@H]1C [rifapentine]	1.222	4.517	3.148	3.413
33 µM	28.4 µM	35.4 µM	35.4 µM	20.8 µM	33 µM	CO[C@H]1/C=C/O[C@@]2(C)Oc3c(C)c(O)c4c(O)c(cc(O)c4c3C2=O)NC(=O)/C(C)=C\C=C\[C@H](C)[C@H](O)[C@@H](C)[C@@H](O)[C@@H](C)[C@H](OC(C)=O)[C@@H]1C [rifamycin]	0.412	0.478	0.383	0.654

Structure (SMILES)	IC50 (A. baumannii ATCC 17978; [1])	IC50 (A. baumannii ATCC 17978; ATCC17978, ATCC 17978, RPMI)	IC50 (A. baumannii HUMC1; [2])	IC50 (A. baumannii HUMC1; HUMC1, HUMC1, RPMI + 50% Serum)	IC50 (A. baumannii HUMC1; HUMC1, HUMC1, RPMI)	IC50 (A. baumannii ATCC 17978; [7])	Specificity HEK293T (CC50/IC50) (HEK293T; [3])	Specificity HEK293T (CC50/IC50) (HEK293T; [4])	Specificity HEK293T (CC50/IC50) (HEK293T; [5])	Specificity HEK293T (CC50/IC50) (HEK293T; [6])
CO[C@H]1/C=C/O[C@@]2(C)Oc3c(C)c(O)c4c(=O)c(c5oc6cc(N7CCN(CC(C)C)CC7)cc(O)c6nc-5c4c3C2=O)NC(=O)/C(C)=C\C=C\[C@H](C)[C@H](O)[C@@H](C)[C@@H](O)[C@@H](C)[C@H](OC(C)=O)[C@@H]1C [rifalazil]	50 µM	17.4 µM	7.51 µM	7.51 µM	20 µM	–	0.609	1.752	4.055	1.523
